Experimental findings from patent publication US8758802B2, “Methods of inhibiting cataracts and presbyopia” (University of Massachusetts, priority 2009, dated 2014) are described below.

“Also recorded” adds a separate entry of the source.

For this test, the system named is βL-crystallin. The experiment in a line: Dynamic light scattering of βL-crystallin solutions with added agents (aggregate size, hydrodynamic radius). Type of test: biochemical, bovine. To be noted: for Effect on βL-crystallin aggregate size / de-clumping: SDS 0.1 mg/mL (below CMC), 0.2 mg/mL βL-crystallin in water, sulfate. As to the method: βL-crystallin (C5163 Sigma-Aldrich) and α-crystallin (C4163 Sigma-Aldrich) from a bovine eye lens were stored in a biological freezer. The four stock solutions prepared for these experiments were 2 mg/mL βL-crystallin in water, 2 mg/mL βL-crystallin in PBS, 2 mg/mL α-crystallin in water, and 0.15M NaCl in water. All water used in these experiments was filtered and deionized. A stock solution of 2 mg/mL βL-crystallin in water was prepared by mixing 10 mg of βL-crystallin with 5 mL water in a decontaminated 20 mL scintillation vial. A similar procedure was followed to prepare 2 mg/mL α-crystallin in water and 2 mg/mL βL-crystallin in PBS.
A dilution of these stock solutions was used to create 2 mL samples of 0.2 mg/mL βL-crystallin in water, 0.2 mg/mL α-crystallin in water, 0.2 mg/mL βL-crystallin, 0.15M NaCl in water, 0.2 mg/mL βL-crystallin, 0.6 mg/mL α-crystallin in water, and 0.2 mg/mL βL-crystallin in PBS.
An ALV instrument with an Ar laser (λ=514.5 nm) was used to collect DLS data from 35°-65° in 5° increments and from 70°-90° in 10° increments. An ALV5000 correlator was used to analyze the data. Glass DLS tubes (4 mL) were sonicated in an extremely dilute solution of Micro-90 for 1 hour and then rinsed with filtered deionized water eight times followed by acetone eight times. The concentration of crystallins in the lens is typically very high. However, dilute solutions of the crystallins are required for DLS characterization, as set forth by limitations imposed by the Zimm regime.
The hydrodynamic radius, Rh, can be determined using the Stokes-Einstein equation,
As mentioned earlier, α-crystallin acts as a chaperone protein in the lens as it either diminishes or inhibits aggregation. In order to determine the impact of α-crystallin and its chaperone abilities on βL-crystallin, a solution of 0.2 mg/mL βL-crystallin, 0.6 mg/mL α-crystallin in water at 23° C. was prepared for DLS. […] The addition of the chaperone was thereby seen to remove the aggregate.
In order to determine if the aggregation of the crystallins is electrostatic in nature, dynamic light scattering was accomplished on 0.2 mg/mL βL-crystallin in a 0.15M NaCl water solution, (FIG. 8).
The effect of SDS, sodium dodecyl sulfate (purchased from Sigma Aldrich) a […] surfactant on βL-crystallin deaggregation was studied as in Example 4. The CMC for SDS is 2.36 mg/ml, so the SDS concentration was maintained below that value.

The mark [1] stands for this setting: 0.2 mg/mL βL-crystallin, 0.15M NaCl in water.

Consider `[Cl-].[Na+]` [NaCl], for which, under “0.2 mg/mL βL-crystallin in 0.15M NaCl water solution, without salt 230 nm”, the “Rh of βL-crystallin aggregate (slow mode) after addition of the salt” value came to 120 nm. Besides, under setting [1], the “Effect of salt on fast mode (unaggregated βL-crystallin)” value is reported as “not significantly affected” and the “Reduction in aggregate Rh upon addition of NaCl” value is given as “two-fold reduction”. Besides, the “Effect on βL-crystallin aggregate size” value (about 0.15 M NaCl) is “decreases βL-crystallin aggregate size”.

Take `CCCCCCCCCCCCOS(=O)(=O)[O-].[Na+]` [SDS, sodium dodecyl sulfate, reference compound]: the “Effect on βL-crystallin aggregate size / de-clumping” value was “did not stimulate de-clumping”. For the same compound, the “Effect on βL-crystallin aggregate size / de-clumping” value (listed as sodium dodecyl sulfate) was “no effect; also recorded: does not reduce βL-crystallin aggregate sizes”.
